d = 2'-deoxy (DNA); m = 2'-O-methyl; r = 2'-OH (RNA); f = 2'-fluoro
Assays:
[1] = tested on: A549 orthotopic lung cancer tumors; test: Orthotopic A549 lung cancer mouse model; settings: 2 mg/kg
Experimental: The anti-tumor efficacy of the siRNA formulation against human lung cancer A549 was evaluated by comparing the final primary tumor weights measured at necropsy for the treatment group and the vehicle control group.
For this study, male NCr nu/nu mice, 5-6 weeks old, were used. The experimental animals were maintained in a HEPA filtered environment during the experimental period. The siRNA formulations were stored at 4° C. before use, and warmed to room temperature 10 minutes prior to injection in mouse.
For this A549 human lung cancer orthotopic model, on the day of surgical orthotopic implantation (SOI), the stock tumors were harvested from the subcutaneous site of animals bearing A549 tumor xenograft and placed in RPMI1640 medium. Necrotic tissues were removed and viable tissues were cut into 1.5-2 mm^3 pieces. The animals were anesthetized with isoflurane inhalation and the surgical area was sterilized with iodine and alcohol. A transverse incision approximately 1.5 cm long was made in the left chest wall of the mouse using a pair of surgical scissors. An intercostal incision was made between the third and the fourth rib and the left lung was exposed. One A549 tumor fragment was transplanted to the surface of the lung with an 8-0 surgical suture (nylon). The chest wall was closed with a 6-0 surgical suture (silk). The lung was re-inflated by intrathoracic puncture using a 3 cc syringe with a 25 G×1½ needle to draw out the remaining air in the chest cavity. The chest wall was closed with a 6-0 surgical silk suture.
Three days after tumor implantation, the model tumor-bearing mice were randomly divided into groups of ten mice per group. For the group of interest, treatment of the ten mice was initiated three days after tumor implantation.
For the group of interest, the formulation was (Ionizable lipid: cholesterol:DOPE:DOPC:DPPE-PEG-2K:DSPE-PEG-2K), a liposomal composition. The liposomes encapsulated the GST-π siRNA.
For the study endpoint, the experimental mice were sacrificed forty-two days after treatment initiation. […]

[2] = tested on: GST-π mRNA; test: Knockdown of GST-π mRNA in A549 xenograft tumors in vivo; design: species or system mouse
[3] = tested on: PUMA; test: PUMA biomarker for apoptosis of cancer cells in vitro (qPCR); format: cell-based; settings: from 2-4 days after transfection; siRNA 10 nM
Experimental: The protocol for the PUMA biomarker was as follows. One day before transfection, cells were plated in a 96-well plate at 2×10^3 cells per well with 100 μl of DMEM (HyClone Cat. # SH30243.01) containing 10% FBS and cultured in a 37° C. incubator containing a humidified atmosphere of 5% CO2 in air. Next day, before transfection the medium was replaced with 90 μl of Opti-MEM I Reduced Serum Medium (Life Technologies Cat. #31985-070) containing 2% FBS. Then, 0.2 μl of Lipofectamine RNAiMAX (Life Technologies Cat. #13778-100) were mixed with 4.8 μl of Opti-MEM I for 5 minutes at room temperature. 1 μl of the siRNAs (stock conc. 1 μM) was mixed with 4 μl of Opti-MEM I and combined with the RNAiMAX solution and then mixed gently. The mixture was incubated for 10 minutes at room temperature to allow the RNA-RNAiMAX complexes to form. 10 μl of RNA-RNAiMAX complexes were added per well, to final concentration of the siRNA 10 nM. The cells were incubated for 2 hours and medium changed to fresh Opti-MEM I Reduced Serum Medium containing 2% FBS. […] PUMA (BBC3, Cat# Hs00248075, Life Technologies) mRNA levels were measured by qPCR with TAQMAN.
The protocol for the PUMA biomarker was as follows. […] PUMA (BBC3, Cat#Hs00248075, Life Technologies) mRNA levels were measured by qPCR with TAQMAN.

[4] = tested on: A549 cancer xenograft tumors; test: A549 cancer xenograft model, tumor inhibition efficacy; format: in vivo, mouse; settings: 0.75 mg/kg IV, two injections (day 1 and 15)
Experimental: For the cancer xenograft model, an A549 cell line was obtained from ATCC. The cells were maintained in culture medium supplemented with 10% Fetal Bovine Serum and 100 U/ml penicillin and 100 μg/ml streptomycin. Cells were split 48 hrs before inoculation so that cells were in log phase growth when harvested. Cells were lightly trypsinized with trypsin-EDTA and harvested from tissue culture. The number of viable cells was counted and determined in a hemocytometer in the presence of trypan blue (only viable cells are counted). The cells were resuspended to a concentration of 5×10^7/ml in media without serum. […]
For tumor volume measurements and randomization, tumor size was measured to the nearest 0.1 mm. Tumor volumes were calculated using the formula: […]. […] Tumor volumes were monitored three times for week 1, twice for the rest of weeks, including the day of study termination. […]
For body weight, mice were weighed to the nearest 0.1 g. Body weights were monitored and recorded daily within 7 days post dosing for first dose. Body weights were monitored and recorded twice for weeks, for the rest of weeks, including the day of study termination.
For tumors collection, on 28 days post first dosing, tumor volume was measured, and tumor was dissected for weight measurement, and stored for PD biomarker study. Tumor weight was recorded. […]

Row | Substance | final tumor average weights reduced as compared to control ([1]; after 43 days, liposomal formulation, athymic nude mice) [fold] | mean body weight of the mice ([1]; entire experimental period) | other symptoms of toxicity ([1]; entire experimental period) | reduction of GST-π mRNA ([2]; 4 mg/kg, single injection, 24 hours after injection) | GST-π mRNA expression ([2]; 4 days after injection in a lipid formulation) | expression of PUMA [3] | tumor volume reduced as compared to control ([4]; after 36 days, liposomal formulation) [fold] | tumor weight reduced ([4]; endpoint day)
1 | SEQ ID NOs:61 and 126: GST-π siRNA; sense GAAGCCUUUUGAGACCCUAtt; antisense UAGGGUCUCAAAAGGCUUCag (sense GAAGCCUUUUGAGACCCUATT; antisense UAGGGUCUCAAAAGGCUUCAG; chemistry not given here) | 2.8 | maintained within the normal range | not observed | about 40% | significant reduction | – | – | –
2 | SEQ ID NOs:156 and 182: GST-π siRNA, Table 2; sense GAAGCCUUUUGAGACCCUAUU; antisense fUAGgGuCuCAAAAGGCUUCUU (antisense UAGGGUCUCAAAAGGCUUCUU; sense: sugars from the 5' end mmmrrrrmrmrrrrrrrmmmm, backbone not given here; antisense: sugars from the 5' end frrdrdrdmrmmrrrrmmrmm, backbone and T or U not given here) | – | – | – | – | – | greatly increased | 2 | more than 2 fold

Source: USRE48887E1, “RNA interference compositions and methods for malignant tumors” (Nitto Denko Corporation, priority 2014, dated 2022)
